Test results published in article PMC12677599 (Advanced Science, 2025).
Where two headings read alike, the source gives them in different places. Where a SMILES comes first, the peptide text is derived from it. [ ]: non-standard residue; d: D form. The star is where a group is joined. PEG4 = NCCOCCOCCOCCOCCC(=O)O; Piperidide = C1CCN(*)CC1

Assays:
H460 cells [1] = assay: Killing rate evaluation, calcein-AM/PI double staining; assay type: cell-based; conditions: IC50 concentration, n = 2
Protocol: Calcien‐AM/PI double staining assay was used. NCI‐H460 cells were seeded in a chamber‐slide (154526, Thermo Fisher Scientific) at a density of 100 000 cells per unit in a volume of 500 µL and cultured for 24 h. After starvation with 300 µL of SFM for 4 h, cells were treated with 500 µL of compound solutions with different concentrations for 2, 4, 6, 8, 10 h, respectively. Cells treated with 0.5% DMSO in SFM served as control group. Subsequently, cells in each unit were washed with EBSS once, and incubated with 500 µL of 2 µg mL^−1 calcien‐AM solution at 37 °C for 20 min. Afterward, cells were stained with 500 µL of 2 µg mL^−1 PI solution at room temperature for 15 min and washed with EBSS 3 times. Finally, 300 µL of EBSS was added into each unit. Live (green fluorescence from calcein‐AM) and dead (red fluorescence from PI) cells were then observed and imaged under a fluorescence microscope (LEICA Dmi8). This evaluation was conducted with two biological replicates. Quantitative analyses of living cells were processed with ImageJ software (threshold set: 8‐255).

HEK-293 normal cell line = assay: cells; assay type: cell-based
Protocol: (§1) MTT assay was conducted as previously described.^[ [44] ^] Tumor cell lines (NCI‐H460, NCI‐H838, HT‐1080, MCF‐7, PC‐3, U‐251‐MG, and U‐87 MG) were seeded in 96‐well plates at a density of 8000 cells per well in a volume of 100 µL and cultured for 24 h. Normal cell lines (HaCaT, HMEC‐1, MRC‐5, and HEK‐293) were seeded in 96‐well plates at a density of 10 000 cells per well in a volume of 100 µL and cultured for 48 h. After that, only tumor cell lines were starved with 100 µL of SFM for a further 4–6 h. Subsequently, cells were treated with 100 µL of compound solutions with different concentrations for 24 h. Cells treated with SFM and 0.5% DMSO in SFM served as blank control and growth control, respectively. Ten µL of MTT solution (5 mg mL^−1) was added to each well, followed by an additional incubation period of 2 h for tumor cells and 4 h for normal cells. Finally, the solvent in each well was swapped with 100 µL of DMSO to dissolve the formazan crystals. The absorbance was measured by the plate reader at 570 nm.
(§2) The cell viability was calculated (1) Cellviability%=ODSamplegroup−ODBlank/ODGrowthgroup−ODBlank×100%

H460 cell line = assay: cells; assay type: cell-based
Protocol: as §1, §2

H460 cells [2] = assay: LDH release assay; assay type: cell-based; conditions: H460, 4 h dosing at each IC50 value; n = 3
Protocol: The seeding and starvation process were the same as cell antiproliferation evaluation. Cells were treated with 100 µL of compound solutions with different concentrations (compound 266 was tested at 12 µM) for 4 or 24 h. Cells treated with 0.5% DMSO in SFM and 1% Triton X‐100 in SFM served as blank control and positive control, respectively. Afterward, LDH working solution was prepared according to the instructions of the Cytotoxicity Detection Kit (LDH). Fifty µL of supernatant was transferred to another 96‐well plate, and 50 µL of LDH working solution was added to each well, followed by a 40 min incubation at room temperature. Subsequently, the absorbance of each well was measured by the plate reader at 490 nm.
The LDH release ratio was calculated as (3) LDHrelease%=ODSamplegroup−ODBlank/ODPositivegroup−ODBlank×100%

HT-1080 cell line = assay type: cell-based; conditions: 24 h
Protocol: as §1, §2

HaCaT normal cell line = assay type: cell-based; conditions: 24 h
Protocol: as §1, §2

H838 cell line = assay type: cell-based; conditions: 24 h
Protocol: as §1, §2

MRC-5 normal cell line = assay type: cell-based; conditions: 24 h
Protocol: as §1, §2

HMEC-1 normal cell line = assay type: cell-based; conditions: 24 h
Protocol: as §1, §2

[3] = test system: matrix-metalloproteinase (MMP); assay: MMP cleavage detection in H460 condition medium; assay type: in vitro ADME; conditions: 50 µM in condition or control medium, HPLC and MS, n = 2
Protocol: NCI‐H460 cells were seeded in 48‐well plates at a density of 24 000 cells per well in a volume of 300 µL and cultured for 24 h. Afterward, 300 µL of SFM was added to each well followed by a 10 h incubation. Next, the supernatant of each well was transferred to 1.5 mL tubes. The supernatant of control group was incubated at 60 °C for 30 min (control medium) while the supernatant of dosing group (condition medium) had no incubation. […] Last, 150 µL of samples were analyzed by analytical HPLC and ESI‐MS. HPLC condition: gradient: 100% solution A from 0 to 5 min and 100% solution A to 0% solution A from 5 to 65 min; flow rate: 1 mL min^−1; detector wavelength: 214 nm. Each sample had two replicates.

[4] = test system: Cisplatin-resistance H460 cell line; assay type: cell-based; conditions: 24 h
Protocol: as §1
(§3) Wild type H460 cells were cultured in a T‐75 flask and exposed to 30 µM of cisplatin. Cells were passed when the confluency reached 90%. The IC50 value of cisplatin on this cell line was evaluated every two passages. After the IC50 value was higher than 500 µM, the cultured medium was changed to normal CGM, and the cell line was cultured for another three passages. The IC50 value was evaluated again to make sure the resistance was stable. The other three resistance cell lines establishment process was similar. […] Parental NCI‐H460 cells were exposed to 10 µM 5‐fluorouracil, 2.5 µM paclitaxel, or 2.5 µM etoposide to generate 5‐fluorouracil‐resistant, paclitaxel‐resistant, and etoposide‐resistant cell lines, respectively.

[5] = test system: 5-Fluorouracil-resistance H460 cell line; assay type: cell-based; conditions: 24 h
Protocol: as §1, §3

[6] = test system: Etoposide-resistance (DR-EPT) H460 cell line; assay type: cell-based; conditions: 24 h
Protocol: as §1, §3

[7] = test system: Paclitaxel-resistance (DR-PTX) H460 cell line; assay type: cell-based; conditions: 24 h
Protocol: as §1, §3

IC50 (H460 cell line; Homo sapiens, NCI-H460, Table S11, MTT, read-out: IC50 Value of chemotherapeutics, H460) | SMILES | cells eliminated within 10 h (H460 cells [1]) | IC50 (HEK-293 normal cell line; Homo sapiens, HEK293, Table S11, MTT, read-out: IC50 Value of chemotherapeutics, HEK-293) | LDH release ratio (H460 cells [2]) | IC50 (HT-1080 cell line) | IC50 (HaCaT normal cell line) | IC50 (H838 cell line) | IC50 (MRC-5 normal cell line) | IC50 (HMEC-1 normal cell line) | IC50 (HEK-293 normal cell line; 24 h) | IC50 (H460 cell line; 24 h) | MMP-cleaved product detection / integrity in H460 medium [3] | IC50 [4] | IC50 [5] | IC50 [6] | IC50 [7]
169 ± 29.2 µM | COc1cc([C@@H]2c3cc4c(cc3[C@@H](O[C@@H]3O[C@@H]5CO[C@@H](C)O[C@H]5[C@H](O)[C@H]3O)[C@H]3COC(=O)[C@H]23)OCO4)cc(OC)c1O [Etoposide, etoposide, reference compound] | ≈ 10% | 115 ± 14.7 µM | no positive results | – | – | – | – | – | – | – | – | – | – | – | –
– | CC[C@H](C)[C@H](NC(=O)[C@H](CCCCN)NC(=O)[C@@H]1CCCN1C(=O)[C@H](CC(C)C)NC(=O)[C@@H](NC(=O)[C@H](CO)NC(=O)[C@H](CCC(=O)N1CCCCC1)NC(=O)[C@H](CC(C)C)NC(=O)[C@H](CC(=O)O)NC(=O)[C@H](CC(=O)O)NC(=O)[C@H](Cc1ccccc1)NC(=O)[C@@H](NC(=O)[C@H](CCCCN)NC(=O)[C@@H]1CCCN1C(=O)[C@H](Cc1ccccc1)NC(=O)[C@@H](N)Cc1ccccc1)[C@@H](C)CC)[C@@H](C)CC)C(=O)N[C@@H](CC(C)C)C(=O)NCC(=O)N1CCC[C@H]1C(=O)N[C@@H](CC(C)C)C(=O)NCC(=O)N[C@@H](CC(C)C)C(=O)N[C@@H](C)C(=O)NCC(=O)NCCOCCOCCOCCOCCC(=O)NCCOCCOCCOCCOCCC(=O)NCCOCCOCCOCCOCCC(=O)NCCOCCOCCOCCOCCC(N)=O [compound 209] (H-FFPKIFDDLE(Piperidide)SILPKILGPLGLAG[PEG4][PEG4][PEG4][PEG4]-NH2) | – | – | – | 86.8 ± 49.1 µM | > 100 µM | 84.5 ± 5.91 µM | > 100 µM | > 100 µM | 98.6 µM | 53.4 µM | remained intact | 94.3 µM | 84.5 ± 4.55 µM | > 100 µM | 97.8 µM
